Test results as given in PubChem BioAssay (NCI).
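All cell lines were grown in 96-well plates and treated with compound for 48 hours. At the GI50, growth is halved. At the TGI there is no net growth.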

Assays:
Experiment in all cases: inhibition of tumour cell growth, NCI panel, 48 h
M14 melanoma = test system: M14 melanoma
SNB-19 CNS = test system: SNB-19 CNS
MALME-3M melanoma = test system: MALME-3M melanoma
OVCAR-4 ovarian = test system: OVCAR-4 ovarian
TK-10 renal = test system: TK-10 renal
SF-295 CNS = test system: SF-295 CNS
UACC-257 melanoma = test system: UACC-257 melanoma
OVCAR-3 ovarian = test system: OVCAR-3 ovarian
BT-549 breast = test system: BT-549 breast
DU-145 prostate = test system: DU-145 prostate

CC(C)NC1CCCCC2c3ccccc3C12O (stereo not given)
TGI (M14 melanoma): > 100 µM
TGI (SNB-19 CNS): > 100 µM
TGI (MALME-3M melanoma): > 100 µM
TGI (OVCAR-4 ovarian): > 100 µM
TGI (TK-10 renal): > 100 µM
TGI (SF-295 CNS): > 100 µM
TGI (UACC-257 melanoma): > 100 µM

CCOc1ccc2c(c1)[n+]([O-])c(-c1ccccc1)c(N)[n+]2[O-]
TGI (M14 melanoma): > 100 µM
TGI (SNB-19 CNS): > 100 µM
TGI (OVCAR-3 ovarian): > 100 µM
TGI (MALME-3M melanoma): > 100 µM
TGI (OVCAR-4 ovarian): > 100 µM
TGI (TK-10 renal): > 100 µM
TGI (SF-295 CNS): > 100 µM
TGI (UACC-257 melanoma): > 100 µM

COc1cc(OC)c(OC)cc1/C=C/c1ccccn1
TGI (BT-549 breast): > 10 µM
TGI (M14 melanoma): > 10 µM
TGI (SNB-19 CNS): > 10 µM
TGI (OVCAR-3 ovarian): > 10 µM
TGI (MALME-3M melanoma): > 10 µM
TGI (OVCAR-4 ovarian): > 10 µM
TGI (TK-10 renal): > 10 µM
TGI (DU-145 prostate): > 10 µM
TGI (SF-295 CNS): > 10 µM
TGI (UACC-257 melanoma): > 10 µM

O=C(c1ccccc1)[C@H]1Nc2ccc(Cl)cc2[C@H]2c3ccccc3O[C@H]21
TGI (M14 melanoma): 30.1 µM
TGI (SNB-19 CNS): 29.3 µM
TGI (OVCAR-3 ovarian): 25.7 µM
TGI (MALME-3M melanoma): 31.7 µM
TGI (OVCAR-4 ovarian): 32.3 µM
TGI (TK-10 renal): 30.4 µM
TGI (SF-295 CNS): 28.9 µM
TGI (UACC-257 melanoma): 8.48 µM

CCN(CC)C(=O)c1cccc2c(OC)ccc(OC)c12
TGI (M14 melanoma): > 100 µM
TGI (SNB-19 CNS): > 100 µM
TGI (OVCAR-3 ovarian): > 100 µM
TGI (MALME-3M melanoma): > 100 µM
TGI (OVCAR-4 ovarian): > 100 µM
TGI (TK-10 renal): > 100 µM
TGI (SF-295 CNS): > 100 µM
TGI (UACC-257 melanoma): > 100 µM

Cc1cc(C)c2c(c1)CSCc1cc(C)cc(C)c1-2
TGI (M14 melanoma): 91.8 µM
TGI (SNB-19 CNS): > 100 µM
TGI (OVCAR-3 ovarian): > 100 µM
TGI (MALME-3M melanoma): 56.8 µM
TGI (OVCAR-4 ovarian): > 100 µM
TGI (TK-10 renal): > 100 µM
TGI (SF-295 CNS): 68.3 µM
TGI (UACC-257 melanoma): 74.1 µM

CN(N=O)C(=O)NC(CCCCNC(=O)OCc1ccccc1)C(=O)OCc1ccccc1 (stereo not given)
TGI (M14 melanoma): 36.9 µM
TGI (SNB-19 CNS): > 100 µM
TGI (OVCAR-3 ovarian): 98.1 µM
TGI (MALME-3M melanoma): 89.6 µM
TGI (OVCAR-4 ovarian): > 100 µM
TGI (TK-10 renal): > 100 µM
TGI (SF-295 CNS): > 100 µM
TGI (UACC-257 melanoma): 33.5 µM

Cc1cccc(-c2nc(=S)[nH][nH]2)c1
TGI (M14 melanoma): > 100 µM
TGI (SNB-19 CNS): > 100 µM
TGI (OVCAR-3 ovarian): > 100 µM
TGI (MALME-3M melanoma): > 100 µM
TGI (OVCAR-4 ovarian): > 100 µM
TGI (TK-10 renal): > 100 µM
TGI (SF-295 CNS): > 100 µM
TGI (UACC-257 melanoma): > 100 µM

CCN(CC)P(=O)(c1ccc2c(c1)OCCOCCOCCOCCO2)N(CC)CC
TGI (BT-549 breast): > 100 µM
TGI (M14 melanoma): > 100 µM
TGI (SNB-19 CNS): > 100 µM
TGI (MALME-3M melanoma): > 100 µM
TGI (TK-10 renal): > 100 µM
TGI (DU-145 prostate): > 100 µM
TGI (SF-295 CNS): > 100 µM

CC(=O)Oc1ccc2c(c1)O/C(=C\c1ccc(N(C)C)cc1)C2=O
TGI (BT-549 breast): > 100 µM
TGI (M14 melanoma): > 100 µM
TGI (SNB-19 CNS): > 100 µM
TGI (OVCAR-4 ovarian): > 100 µM
TGI (TK-10 renal): > 100 µM
TGI (DU-145 prostate): > 100 µM
TGI (UACC-257 melanoma): > 100 µM

COc1ccc(/C=C2\C(=O)N(C(=O)c3ccc(NC(C)=O)cc3)N=C2C)cc1OC
TGI (M14 melanoma): > 100 µM
TGI (SNB-19 CNS): > 100 µM
TGI (OVCAR-3 ovarian): > 100 µM
TGI (MALME-3M melanoma): > 100 µM
TGI (OVCAR-4 ovarian): > 100 µM
TGI (TK-10 renal): > 100 µM
TGI (SF-295 CNS): > 100 µM
TGI (UACC-257 melanoma): > 100 µM

CCCCCCCCCCCC(c1ccccc1)[N+](C)(C)C (stereo not given)
GI50 (BT-549 breast): 1.31 µM
TGI (BT-549 breast): 2.95 µM
GI50 (M14 melanoma): 1.37 µM
TGI (M14 melanoma): 4.25 µM
GI50 (OVCAR-3 ovarian): 0.815 µM
TGI (OVCAR-3 ovarian): 2.35 µM
GI50 (MALME-3M melanoma): 1.29 µM
TGI (MALME-3M melanoma): 2.91 µM
GI50 (OVCAR-4 ovarian): 1.13 µM
TGI (OVCAR-4 ovarian): 4.05 µM
GI50 (TK-10 renal): 0.788 µM
TGI (TK-10 renal): 2.49 µM
GI50 (DU-145 prostate): 1.56 µM
TGI (DU-145 prostate): 7.51 µM
GI50 (SF-295 CNS): 2.32 µM
TGI (SF-295 CNS): 8.9 µM
GI50 (UACC-257 melanoma): 1.37 µM
TGI (UACC-257 melanoma): 2.98 µM
